Experimental data from PMC9495348, “Polyfunctionalized α-Phenyl-tert-butyl(benzyl)nitrones: Multifunctional Antioxidants for Stroke Treatment” (Antioxidants, 2022).

Key:
[1] = ABTS+ decolorization assay in ethanolic solution; conditions: compounds assayed at 100 µM; n.a. = not active
[2] = DPPH radical-scavenging assay; conditions: compounds assayed at 100 µM, DPPH 70 µM, 90 min; no = no activity
Method: The assay was performed as previously described by incubating compounds at a concentration of 100 µM in the presence of 2,2-diphenyl-1-picrylhydrazyl radical (DPPH, 70 µM) in methanol for 90 min, protected from sun light. The absorbance at 517 nm was then determined using a Synergy™ H4 microplate reader (BioTek Instruments, Inc., Winooski, VT, USA). The experiments were performed in triplicate, and the blank (compound without DPPH) was substracted. The percentage of DPPH free radicals was calculated using the equation DPPH free radicals (%) = ((A0 − A1)/A0) × 100, where A0 is the absorbance of MeOH and A1 is the absorbance of the compound. Trolox and resveratrol were used as positive controls.

[3] = Inhibition of linoleic acid peroxidation (ILPO) induced by AAPH; conditions: compounds assayed at 100 µM; n.a. = not active
[4] = target: T1, soybean lipoxygenase (Glycine max, UniProt P08170); assay: In vitro inhibition of soybean LOX; format: biochemical; conditions: for IC50: soybean LOX, sodium linoleate 0.1 mM
T1 construct: purchased Aldrich Chemical Co. Milwaukee, WI, (USA)
T1 sequence (P08170 1-839): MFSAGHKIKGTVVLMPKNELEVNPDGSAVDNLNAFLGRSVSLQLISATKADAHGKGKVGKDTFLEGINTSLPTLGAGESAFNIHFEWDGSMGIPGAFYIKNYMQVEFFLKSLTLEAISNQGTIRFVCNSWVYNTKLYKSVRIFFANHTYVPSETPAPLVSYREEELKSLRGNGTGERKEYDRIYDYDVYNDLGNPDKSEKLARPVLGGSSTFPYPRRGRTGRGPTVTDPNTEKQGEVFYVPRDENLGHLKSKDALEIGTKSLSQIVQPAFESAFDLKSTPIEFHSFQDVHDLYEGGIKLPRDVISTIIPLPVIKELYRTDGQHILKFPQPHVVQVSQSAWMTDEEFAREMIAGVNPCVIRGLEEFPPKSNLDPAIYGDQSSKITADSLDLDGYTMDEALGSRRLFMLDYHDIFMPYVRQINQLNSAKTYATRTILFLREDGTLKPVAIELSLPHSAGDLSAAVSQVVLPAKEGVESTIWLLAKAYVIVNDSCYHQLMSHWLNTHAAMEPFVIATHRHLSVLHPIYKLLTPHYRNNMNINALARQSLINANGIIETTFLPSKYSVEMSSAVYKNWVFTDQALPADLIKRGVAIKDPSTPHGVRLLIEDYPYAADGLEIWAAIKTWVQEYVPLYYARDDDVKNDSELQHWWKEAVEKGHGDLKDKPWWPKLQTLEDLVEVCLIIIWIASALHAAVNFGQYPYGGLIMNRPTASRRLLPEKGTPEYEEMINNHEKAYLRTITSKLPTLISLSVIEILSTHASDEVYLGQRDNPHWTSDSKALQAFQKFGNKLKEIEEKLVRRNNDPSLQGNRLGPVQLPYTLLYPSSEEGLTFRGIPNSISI
Method: The in vitro study was performed as previously described. The compounds were incubated at room temperature with sodium linoleate (0.1 mM) and 0.2 mL of soybean lipoxygenase solution (1/9 × 10^–4 w/v in phosphate buffer saline). The method was based on the conversion of sodium linoleate to 13-hydroperoxylinoleic acid, which was detected by measuring absorbance at 234 nm. […] To determine the IC50 values, serial dilutions of compounds were used. Blank determination served as a negative control.

[5] = Competition of the tested compounds with DMSO for hydroxyl radicals; conditions: compounds assayed at 100 µM; n.a. = not active; no = no activity
[6] = test system: SH-SY5Y neuroblastoma cells; assay: Neuroprotection against okadaic acid, MTT cell viability; format: cell-based; conditions: okadaic acid 20 nM for 20 h, compounds 0.3–10 µM
[7] = target: T2, Aβ1–42 (Homo sapiens, UniProt P05067); assay: Inhibition of Aβ1–42 aggregation, Thioflavin-T assay; format: biochemical; conditions: 10 µM compound and 1.5 µM Aβ1–42, ThT assay
T2 construct: HFIP-pretreated Aβ1–42 peptide Merck Millipore, Darmstadt, Germany; purchased Merck Millipore, Darmstadt, Germany
Method: Thioflavin-T (ThT) assay was performed to investigate the effect of the compounds on the aggregation of Aβ1–42 (HFIP-pretreated Aβ1–42 peptide Merck Millipore, Darmstadt, Germany). Prior to the incubations, 1 mM Aβ1–42 peptide stock solution in DMSO was diluted in 150 mM HEPES buffer (pH = 7.4, 150 mM NaCl) to obtain a concentration of 7.5 μM. Subsequently, 20 µL of Aβ1–42 ([…]) was mixed with the compounds (10 µM, final concentration) on black-walled 96-well plates and diluted with ThT solution (14.3 μM stock solution in HEPES-buffered solution; 10 μM final concentration). The final volume of the mixture was 100 μL, and the DMSO concentration was always 3% (v/v). Each sample was prepared in four technical replicates. ThT fluorescence (λex = 440 nm, λem = 490 nm) was measured using a microplate reader (Synergy™ H4, BioTek Instruments, Inc., Winooski, VT, USA) for 36–48 h. Inhibition of Aβ1–42 aggregation was expressed as the percent inhibition (% inh = (1 − Fi/F0) × 100), where Fi is the increase in fluorescence of compound-treated Aβ1–42, and F0 is the increase in fluorescence of non-treated Aβ1–42.

[8] = compounds assayed at 100 µM, n.a. = not active, no = no activity under the experimental conditions

T2 sequence (P05067 672-713): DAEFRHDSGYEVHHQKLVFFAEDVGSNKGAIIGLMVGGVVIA

SMILES | ABTS+ (%) [1] | DPPH [2] | ILPO (%) [3] | IC50 [4] | OH Scav. Capacity (%) [5] | inhibition at 100 µM [4, 8] | LOX Inhibition (%) [4, 8] | neuroprotective effect (augmented OA-reduced cell viability) [6] | inhibition at 10 µM [7]
[O-]/[N+](=C\c1cccc(OCCCN2CCCCC2)c1)Cc1ccccc1 [nitrone 3, (Z)-N-Benzyl-1-(3-(3-(piperidin-1-yl)propoxy)phenyl)methanimine oxide] | 31% | 2 | 29% | – | – | – | – | – | –
C#CCN1CCN(CCCOc2cccc(/C=[N+](/[O-])Cc3ccccc3)c2)CC1 [nitrone 9, (E)-N-Benzyl-1-(3-(3-(4-(prop-2-yn-1-yl)piperazin-1-yl)propoxy)phenyl)methanimine oxide] | – | 1 | – | 100 µM | 81% | – | – | – | –
Cc1c(C)c2c(c(C)c1O)CCC(C)(C(=O)O)O2 (centres unmarked) [Trolox, reference compound] | 91% | – | 93% | – | 88% | – | – | – | –
CC(C)(C)/[N+]([O-])=C/c1ccccc1 [PBN, α-phenyl-N-tert-butylnitrone, reference compound] | 5% | no | 11% | – | no | 23% | – | – | –
CC(C)(C)/[N+]([O-])=C/c1ccccc1OCCCN1CCCCC1 [nitrone 6, (Z)-N-tert-Butyl-1-(2-(3-(piperidin-1-yl)propoxy)phenyl)methanimine oxide] | – | 0 | – | – | 13% | 39% | – | – | –
C#CCN1CCN(CCCOc2cccc(/C=[N+](\[O-])C(C)(C)C)c2)CC1 [nitrone 10, (Z)-N-tert-Butyl-1-(3-(3-(4-(prop-2-yn-1-yl)piperazin-1-yl)propoxy)phenyl) methanimine oxide] | 13% | 0 | 31% | – | 20% | – | no | – | –
C#CCN1CCN(CCCOc2ccccc2/C=[N+](\[O-])C(C)(C)C)CC1 [nitrone 12, (Z)-N-tert-Butyl-1-(2-(3-(4-(prop-2-yn-1-yl)piperazin-1-yl)propoxy)phenyl) methanimine oxide] | 13% | – | 31% | – | 9.8% | 25% | – | – | –
[O-]/[N+](=C\c1ccc(OCCCN2CCCCC2)cc1)Cc1ccccc1 [nitrone 1, (Z)-N-Benzyl-1-(4-(3-(piperidin-1-yl)propoxy)phenyl)methanimine oxide] | 27% | 0 | – | 60 µM | 7% | – | – | statistically significant at 10 µM | 42.2 ± 5.7%
CC(C)(C)/[N+]([O-])=C/c1ccc(OCCCN2CCCCC2)cc1 [nitrone 2, (Z)-N-tert-Butyl-1-(4-(3-(piperidin-1-yl)propoxy)phenyl)methanimine oxide] | – | 0 | – | – | 54% | – | – | – | –
CC(C)(C)/[N+]([O-])=C/c1cccc(OCCCN2CCCCC2)c1 [nitrone 4, (Z)-N-tert-Butyl-1-(3-(3-(piperidin-1-yl)propoxy)phenyl)methanimine oxide] | 23% | 0 | 45% | – | 54% | 37% | – | – | –
C#CCN1CCN(CCCOc2ccc(/C=[N+](\[O-])Cc3ccccc3)cc2)CC1 [nitrone 7, (Z)-N-Benzyl-1-(4-(3-(4-(prop-2-yn-1-yl)piperazin-1-yl)propoxy)phenyl) methanimine oxide] | 28% | 0 | – | – | – | 27.2% | – | – | –
[O-]/[N+](=C\c1ccccc1OCCCN1CCCCC1)Cc1ccccc1 [nitrone 5, (Z)-N-Benzyl-1-(2-(3-(piperidin-1-yl)propoxy)phenyl)methanimine oxide] | 19% | 0 | – | 10 µM | 9% | – | – | – | –
C#CCN1CCN(CCCOc2ccc(/C=[N+](\[O-])C(C)(C)C)cc2)CC1 [nitrone 8, (Z)-N-tert-Butyl-1-(4-(3-(4-(prop-2-yn-1-yl)piperazin-1-yl)propoxy)phenyl) methanimine oxide] | 10% | 0 | – | – | 78% | 23.3% | – | – | –
